The values that follow come from patent US6458817B1, “Substituted arylsulfides, arylsulfoxides and arylsulfones as beta-3 adrenergic receptor agonists” (Wyeth, priority 2000, dated 2002).

Series [1] has as its target T1, human β3 adrenergic receptor (Homo sapiens, UniProt P13945).
T1 construct: Full length β3 AR clones (402 amino acids) containing the last 6 amino acids of hβ3—AR are prepared; expressed in transfected cells; host or cells: CHO cells
Briefly: cAMP accumulation (SPA) in CHO cells transfected with human β3 adrenergic receptor. The class given is cell-based. To be noted: for EC50: CHO cells expressing human β3-AR, cAMP by SPA, 30 min incubation, 10^-9M to 10^-5M; for IA(β3): maximal response relative to isoproterenol at 10^-5M (IA=% activity compound/% activity isoproterenol). Here is the method:
The ability of compounds of this invention to treat or inhibit disorders related to insulin resistance or hyperglycemia was established with representative compounds of this invention in the following standard pharmacological test procedures, which measured the binding selectivity to the β1, β2, and β3 adrenergic receptors. Binding to the receptors was measured in Chinese Hamster ovary (CHO) cells that were transfected with adrenergic receptors. The following briefly summarizes the procedures used and results obtained.
Cloning of Human β3-AR Genomic DNA: cDNA was constructed by ligating four polymerase chain reaction (PCR) products using the following primers: an ATG-Narl fragment, sense primer 5′-[…]3′ and anti-sense primer 5′[…]3′; a Narl-Accl fragment, 5′[…]3′ as sense and 5′[…]3′ as anti-sense primer; an Accli-Styl fragment, sense primer 5′[…]3′ and anti-sense primer 5′[…]3′ and a Styl-TAG fragment, with sense primer 5′[…]3′ and anti-sense primer 5′[…]3′. The corresponding primer sequences are described in Mantzoros, C. S., et. al., Diabetes 45: 909-914 (1996). The four fragments are ligated into a pUC 18 plasmid (Gibco-BRL) and sequenced. Full length β3 AR clones (402 amino acids) containing the last 6 amino acids of hβ3—AR are prepared with the β3-βARpcDNA3 from ATTC.
Binding Procedure: Clones expressing receptor levels of 70 to 110 fmoles/mg protein were used in the test procedures. CHO cells were grown in 24-well tissue culture plates in Dulbecco's Modified Eagle Media with 10% fetal bovine serum, MEM non-essential amino acids, Penicillin-Streptompycin and Geneticin. On the day of test procedure, growth medium was replaced with preincubation media (Dulbecco's Modified Eagle Media and incubated for 30 minutes at 37° C. Preincubation medium was replaced with 0.2 ml treatment medium containing DMEM media containing 250 μM IBMX (isobutyl-1-methylxantine) plus 1 mM ascorbic acid with test compound dissolved in DMSO. Test compounds were tested over a concentration range of 10^−9M to 10^−5M for β3 cells and 10^−8 to 10^−4M for β1 and β2 transfected cells. Isoproterenol (10^−5M) was used as an internal standard for comparison of activity. Cells were incubated at 37° C. on a rocker for 30 min with the β3 cells and 15 min for β1 and β2 cells. Incubation was stopped with the addition of 0.2N HCl and neutralized with 2.5N NaOH. The plates, containing the cells and neutralized media, were stored at −20 degrees celsius until ready to test for cAMP using the SPA test kit (Amersham).
Data Analysis and Results: Data collected from the SPA test procedure were analyzed as per cent of the maximal isoproterenol response at 10^−5M. Activity curves were plotted using the SAS statistical and graphics software. EC50 values were generated for each compound and the maximal response (IA) developed for each compound is compared to the maximal response of isoproternol at 10^−5M from the following formula:
IA=% activity compound/% activity isoproterenol

SMILES strings stand for the structures.

T1 sequence (P13945 whole entry): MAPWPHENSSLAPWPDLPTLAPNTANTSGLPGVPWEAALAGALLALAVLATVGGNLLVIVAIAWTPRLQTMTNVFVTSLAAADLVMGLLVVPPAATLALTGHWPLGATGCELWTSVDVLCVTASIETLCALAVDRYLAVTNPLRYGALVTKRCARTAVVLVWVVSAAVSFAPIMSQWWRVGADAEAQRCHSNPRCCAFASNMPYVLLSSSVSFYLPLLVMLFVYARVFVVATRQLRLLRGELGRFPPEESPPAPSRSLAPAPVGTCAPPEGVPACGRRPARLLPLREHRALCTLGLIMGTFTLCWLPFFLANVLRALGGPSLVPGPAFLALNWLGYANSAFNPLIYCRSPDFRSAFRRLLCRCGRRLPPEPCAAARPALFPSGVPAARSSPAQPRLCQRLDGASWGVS

`O=S(=O)(Cc1noc(-c2ccccc2)n1)c1ccc(CCNCC(O)c2ccc(OC(F)(F)F)cc2)cc1` (stereo not drawn) [Example 8, 2-[(4{[(5-phenyl-1,2,4-oxadiazol-3-yl)methyl]sulfonyl}phenethyl)amino]-1-[4-(trifluoromethoxy)phenyl]-1-ethanol] had a melting point of 125 to 127 °C.

As to `Cc1noc(C)c1-c1nc(CS(=O)(=O)c2ccc(CCNC[C@H](O)COc3ccc(O)cc3)cc2)no1` [Example 12, 4-[((2S)-3-{[4-({[5-(3,5-dimethyl-4-isoxazolyl)-1,2,4-oxadiazol-3-yl]methyl}sulfonyl)phenethyl]amino}-2-hydroxypropyl)oxy]phenol], in series [1], the EC50 was determined as 70 nM.

`CC(C)(C)c1nc(CS(=O)(=O)c2ccc(CCNC[C@H](O)COc3ccc(O)cc3)cc2)no1` [Example 15, 4-[((2S)-3-{[4-({[5-(tert-butyl)-1,2,4-oxadiazol-3-yl]methyl}sulfonyl)phenethyl]amino}-2-hydroxypropyl)oxy]phenol]: in series [1], the EC50 was 28 nM and the “IA(β3)” value came to 0.92.

As for `COc1ccc(-c2nc(CS(=O)(=O)c3ccc(CCNC[C@H](O)COc4ccc(O)c(C)c4)cc3)no2)cc1` [Example 19, 4-[((2S)-2-hydroxy-3-{[4-({[5-(4-methoxyphenyl)-1,2,4-oxadiazol-3-yl]methyl}sulfonyl)phenethyl]amino}propyl)oxy]-2-methylphenol], in series [1], it took 68 nM to reach a half-maximal effect (EC50) and the “IA(β3)” value is recorded as 0.95.

`[O-][S+](Cc1noc(Cc2ccccc2)n1)c1ccc(CCNC[C@H](O)COc2ccc(O)cc2)cc1` (stereo partly drawn) [Example 24, 4-({(2S)-3-[(4-{[(5-benzyl-1,2,4-oxadiazol-3-yl)methyl]sulfinyl}phenethyl)amino]-2-hydroxypropyl}oxy)phenol] displayed a melting point of 51 to 57 °C. Also, in series [1], the EC50 was determined as 431 nM and the “IA(β3)” value is 0.62.

Regarding `COc1ccc(-c2nc(CS(=O)(=O)c3ccc(CCNC[C@H](O)c4ccc(O)c(NS(C)(=O)=O)c4)cc3)no2)cc1` [Example 27, N-[2-hydroxy-5-((1R)-1-hydroxy-2-{[4-({[5-(4-methoxyphenyl)-1,2,4-oxadiazol-3-yl]methyl}sulfonyl)phenethyl]amino}ethyl)phenyl]methanesulfonamide], in series [1], the EC50 came to 25 nM and the “IA(β3)” value is recorded as 1.

`COc1ccc(-c2nc(CS(=O)(=O)c3ccc(CCNC[C@H](O)COc4ccc(O)cc4)cc3)no2)cc1` [Example 29, 4[((2S)-2-hydroxy-3-{[4-({[5-(4-methoxyphenyl)-1,2,4-oxadiazol-3-yl]methyl}sulfonyl)phenethyl]amino}propyl)oxy]phenol]: in series [1], the EC50 is 33 nM and the “IA(β3)” value came out at 1.1.

As to `CC(C)(C)c1nc(CSc2ccc(CCNC[C@H](O)COc3ccc(O)cc3)cc2)no1` [Example 32, (2S)-4-(3-{2-[4-(5-tert-Butyl-[1,2,4]oxadiazol-3-ylmethylsulfanyl) -phenyl]-ethylamino}-2-hydroxy-propoxy)-phenol], in series [1], the EC50 turned out to be 330 nM and the “IA(β3)” value amounted to 1.2.

`Cc1ccc(-c2noc(CSc3ccc(CCNC[C@H](O)COc4cccc5[nH]nnc45)cc3)n2)cc1` [Example 33, (2S)-1-(1H-1,2,3-benzotriazol-4-yloxy)-3-{[4-({[3-(4-methylphenyl)-1,2,4-oxadiazol-5-yl]methyl}sulfanyl)phenethyl]amino}-2-propanol] registered a melting point of 110 °C. In series [1], it took 789 nM to reach a half-maximal effect (EC50) and the “IA(β3)” value is given as 0.44.
